The source of these data is patent US9827217B2, “Pharmaceutically acceptable salts of B-guanidinopropionic acid with improved properties and uses thereof” (Rgenix, Inc., priority 2015, dated 2017).

Format in all cases: physicochemical
Series [1] can be described thus: Experiments performed on 2:1 fumarate salt (Pattern 7C). On the procedure: To confirm the above hypothesis the following experiments (Table 24) were performed on the lyophilized sample (Pattern 7C): […]
Series [2] can be described thus: Dynamic vapor sorption (moisture uptake). To be noted: XRPD of post DVS sample. The method, then: Samples were analyzed using an Aquadyne DVS-2 gravimetric water sorption analyzer. The relative humidity was adjusted between 2-95% and the weight of the sample was continuously monitored and recorded.
[…]: β-GPA maleate (1:1) Form II, β-GPA fumarate (1:1), β-GPA maleate (2:1), β-GPA succinate (2:1) and β-GPA oxalate (1:1) were analyzed by DVS experiment followed by XRPD analysis of the sample at the end of the experiment.
Sample 2162-64-1 was analyzed by DVS in triplicate and the post DVS samples were characterized by XRPD to identify the form at the end of the experiment.

Series [3] can be described thus: Solid form stability of salts in different solvents (slurry). To be noted: 48 hours, room temperature. On the procedure:
Three salts were studied for solid form stability in water (disproportionation test), methanol, acetonitrile, and acetone:water (9:1) for 48 hours at room temperature.

Series [4] can be described thus: Flowability measurement using Hanson Flodex unit. Conditions: density and Hanson Flodex data. An excerpt:
A cylindrical vessel is secured to the stand and above that a funnel is also secured such that the bottom of the funnel is close to the vessel. A powder load of ≈50-60 g is then poured through the funnel into the middle of the cylinder. The lever device is pulled to open the hole in the disk quickly and without vibration. If a powder slowly flows through the small-diameter holes, leaving a cavity shaped like an upside-down, truncated cone, the test is considered positive. If a powder flocculates in bulk and falls abruptly, forming a cylindrical cavity, the test is considered negative. […] If the experiment is negative, the powder is tested again with a disk having a larger hole.

Series [5] can be described thus: Determination of bulk and tapped density. To be noted: for Tapped density (ρT): Tap density analyzer. The method, then: The bulk density of β-GPA oxalate (Pattern 18 B), succinate (Pattern 15A), and fumarate (Pattern 7A) were determined by pouring in a known amount of salt (g) into a measuring cylinder. The volume (Vi) occupied by the salt was recorded and the bulk density (ρB) was determined using equation 1. ρB=g/Vi (1)
The tapped densities of the salts were determined using a Tap density analyzer. A known amount of salt was poured (g) into a measuring cylinder and the initial volume was recorded and tapped using a Tap density analyzer. The final volume (Vf) after tapping was recorded and the tapped density (ρT) was calculated by using equation 2. ρT=g/Vf (2)

The mark [6] stands for this setting: 50 mg slurried in 0.2 mL of water.

Regarding `N=C(N)NCCC(=O)O.N=C(N)NCCC(=O)O.O=C(O)/C=C/C(=O)O` [2:1 fumarate salt], the “Stability of the crystalline form of the 2:1 salt” value in series [1] was “unstable”. Also, the “Result: XRPD pattern that Pattern 7C converted to” value in series [1] (setting [6]) is on record as “Pattern 7A”; in series [1] (heated at 50° C. 5-10 minutes) it was “Pattern 7A”; in series [1] (humidity chamber with RH >95% for 48 hours), “Pattern 7A”; in series [1] (mixed with Pattern 7A, undisturbed at room temperature (48 hours)), “Pattern 7A”. In addition, the “Time to conversion of Pattern 7C to Pattern 7A” value in series [1] (setting [6]) is reported as “(within 10 minutes”. Moreover, the “Form conversion of the 2:1 salt” value in series [1] (slurried in water, heated, or under high humidity conditions) is “converted to the 1:1 salt”.

In the case of `N=C(N)NCCC(=O)O.O=C(O)/C=C\C(=O)O` [β-GPA maleate (1:1) Form II], the “Solid form after the DVS experiment (XRPD)” value in series [2] is reported as “no form change”. For the same compound, in series [3], the “Solid form stability (XRPD) after slurry in acetone:water (9:1)” value (“Solid form stability (XRPD) … (9:1)” for short) is reported as “matched with the original pattern of the salt (Pattern 6D) along with some additional peaks”, the “Solid form stability (XRPD) after slurry in acetonitrile” value (“Solid form stability … in acetonitrile” below) is “retain its XRPD pattern”, the “Solid form stability (XRPD) after slurry in methanol” value (shortened to “Solid form stability … in methanol”) was “retain its XRPD pattern” and the “Solid form stability (XRPD) after slurry in water (disproportionation test)” value (“Solid form stability … (disproportionation test)” for short) is “retained their XRPD patterns”.

For the compound `N=C(N)NCCC(=O)O.O=C(O)C(=O)O` [β-GPA oxalate (1:1)], in series [2], the “Solid form after the DVS experiment (XRPD)” value is “retained their XRPD”. For the same compound, in series [2] (listed as 1:1 oxalate salt), the “Solid form after the DVS experiment (XRPD)” value is listed as “no form change”. Besides, the “Solid form after the DVS experiment (XRPD)” value in series [2] (listed as 1:1 β-GPA oxalate) is “no form change”. For the same compound, the “Flow character (summary from the experimental data)” value in series [4] is recorded as “fair”. In series [3], the “Solid form stability (XRPD) … (9:1)” value was “retain their XRPD pattern”, the “Solid form stability … in acetonitrile” value is listed as “retain their XRPD pattern”, the “Solid form stability … in methanol” value is on record as “retain their XRPD pattern” and the “Solid form stability … (disproportionation test)” value is on record as “retained their XRPD patterns”. Further, the “Solid form stability … (disproportionation test)” value in series [3] (listed as 1:1 β-GPA oxalate) is recorded as “retained their XRPD pattern”. In series [5], the “Bulk density (ρB)” value came to 0.505 g/cc and the “Tapped density (ρT)” value stood at 0.623 g/cc.

Consider `N=C(N)NCCC(=O)O.N=C(N)NCCC(=O)O.O=C(O)CCC(=O)O` [β-GPA succinate (2:1)], for which, in series [2], the “Solid form after the DVS experiment (XRPD)” value is “retained their XRPD”. Also, the “Solid form after the DVS experiment (XRPD)” value in series [2] (listed as 2:1 succinate salt) was “no form change”. In addition, in series [2] (listed as 2:1 β-GPA succinate), the “Solid form after the DVS experiment (XRPD)” value is given as “no form change”. The “Flow character (summary from the experimental data)” value in series [4] is given as “good”. Moreover, in series [3], the “Solid form stability (XRPD) … (9:1)” value is given as “presence of β-GPA”, the “Solid form stability … in acetonitrile” value is “retain its original form”, the “Solid form stability … in methanol” value is reported as “retain its original form” and the “Solid form stability … (disproportionation test)” value was “showed two peaks from β-GPA after 6 hours”. For the same compound, in series [3] (listed as 2:1 β-GPA succinate), the “Solid form stability … in acetonitrile” value is reported as “retain its XRPD pattern”, the “Solid form stability … in methanol” value is reported as “retain its XRPD pattern” and the “Solid form stability … (disproportionation test)” value is reported as “started showing up peaks from β-GPA after 6 hours”. Also, in series [5], the “Bulk density (ρB)” value is recorded as 0.405 g/cc and the “Tapped density (ρT)” value worked out at 0.472 g/cc.
